According to patent US20100298437A1, “USE OF CITRULLINE FOR TREATING UNDERNUTRITION CONDITIONS” (UNIVERSITE RENE DESCARTES-PARIS 5, priority 2006, published 2010):

Tests used:
epitrochlearis [1] = assay: Muscle protein synthesis (FSR) measured in vitro on isolated incubated muscle; design: species or system rat; details: for increase of muscle protein synthesis (FSR): isolated muscle of undernourished adult rats, 2.5 mM citrulline, 2 hours incubation, versus control without citrulline
Method: Treatment of animals: Male Sprague-Dawley rats (Charles River Laboratoires, L'Arbresles, France) aged 3 months (n=20) are placed in individual cages in a thermostated atmosphere (23°±1° C.), and subjected to a 12 hr light/dark cycle (dark between 8 a.m.-8 p.m.).
Acclimatization of the rats is carried out during 2 weeks, during which the spontaneous food consumption is measured. The rats are fed a standard diet (A04, UAR, Villemoisson-sur-Orge, France) containing 17% proteins, 3% lipids, 59% carbohydrates and 21% water, fibers, vitamins and minerals. The average dietary intake during this period is 28 g/day for adult rats.
At the end of the acclimatization period, the rats are randomized in 2 groups: a control group made up of rats which are fed ad libitum (AL), and a group which is subjected to dietary restrictions during the same period: the rats are fed at a rate of 50% of spontaneous ingesta during 6 weeks with a 5% protein diet (Walrand S, Chambon-Savanovitch C, Felgines C, Chassagne J, Raul F, Normand B et al. Aging: a barrier to renutrition? Nutritional and immunologic evidence in rats. Am J Clin Nutr 2000; 72:816-824).
Incubated isolated muscles. Muscles were incubated according to a method which had been used previously (Minet-Quinard R, Moinard C, Villie F, Vasson M P, Cynober L. Metabolic pathways implicated in the kinetic impairment of muscle glutamine homeostasis in adult and old glucocorticoid-treated rats. Am J Physiol Endocrinol Metab 2004; 287:E671-E676). Epitrochlearis is used because it is the most suitable for this type of study. […] At the end of the incubation, the muscles are collected and kept at −80° C. until the incorporation of ^13C-phenylalanine is measured by mass spectrometry in order to determine the Fractional Protein Synthesis (FSR) (Guillet C, Boirie Y, Walrand S. An integrative approach to in-vivo protein synthesis measurement: from whole tissue to specific proteins. Curr Opin Clin Nutr Metab Care 2004; 7:531-538). […]

epitrochlearis [2] = assay: Metabolism of citrulline by isolated incubated muscle (amino acids titrated in incubation medium); assay type: in vitro ADME, rat; details: isolated muscle of healthy or undernourished adult rats, no metabolically linked amino acid released in incubation medium (results not shown)
Method: Incubated isolated muscles. Muscles were incubated according to a method which had been used previously (Minet-Quinard R, Moinard C, Villie F, Vasson M P, Cynober L. Metabolic pathways implicated in the kinetic impairment of muscle glutamine homeostasis in adult and old glucocorticoid-treated rats. Am J Physiol Endocrinol Metab 2004; 287:E671-E676). Epitrochlearis is used because it is the most suitable for this type of study. After dissection, the epitrochlearis are incubated in 3 mL Krebs-Ringer buffer (119 mM NaCl; 4.8 mM KCl; 1.25 mM MgSO4; 25 mM NaHCO3; 1.24 mM NaHPO4; 1.0 mM CaCl2; 2 mM HEPES, pH 7.4), also containing glucose (8 mM), insulin (0.01 U/ml) and bovine serum albumin (BSA) (0.1% p/v). The muscles are pre-incubated during 30 minutes at 37° C. with 95% O2: 5% CO2. The muscles are then transferred into a tube containing 3 mL incubation medium (with ^13C-phenylalanine (1 mM) with or without 2.5 mM citrulline), and are incubated during 2 hours. At the end of the incubation, the muscles are collected and kept at −80° C. until the incorporation of ^13C-phenylalanine is measured by mass spectrometry in order to determine the Fractional Protein Synthesis (FSR) (Guillet C, Boirie Y, Walrand S. An integrative approach to in-vivo protein synthesis measurement: from whole tissue to specific proteins. Curr Opin Clin Nutr Metab Care 2004; 7:531-538). […]

P70S6kinase = assay: In vivo activation of the mTOR pathway: P70S6kinase by Western Blot in tibialis muscles of undernourished aged rats; design: species or system rat; details: tibialis muscle
Method: Treatment of animals: Forty male Sprague-Dawley rats aged 19 months (Charles River, L'Arbresle, France) were used. During an acclimatization period of 2 weeks the animals were fed ad libitum with a standard diet (UARA04, Usine d'Alimentation Rationnelle, Villemoisson-sur-Orge). Measurement of the spontaneous ingesta was carried out regularly. After this period 30 rats were subjected to a 50% dietary restriction during 12 weeks. Sacrificing 10 rats, used as a control group (group R), was carried out at the end of the dietary restriction period. The other 20 animals were again fed during one week before being sacrificed. Isonitrogen and isocaloric diets were either a standard diet enriched with citrulline 5 g/kg/d (n=10, group R+CIT), or a standard diet enriched with non essential amino acids (Ala, Gly, His, Asp, Ser in an equimolar ratio) (n=10, group R+AANE). Ten rats make up the control group (A.L); they are fed ad libitum all along the study before being sacrificed. Then the rats are sacrificed. The tibialis muscles are taken and quickly frozen in liquid nitrogen, then stored at −80° C. until analysis.
Extraction of proteins and titration: The muscles are ground in liquid nitrogen with a mortar. The thus obtained powder is weighed, and then taken again in 10 volumes of a solubilization buffer containing a cocktail of phosphatase and protease inhibitors. […]

[3] = enteral administration, rats with intestinal insufficiency; from FR 03 08349; cited from earlier work
[4] = undernourished aged rats, former studies of the inventors; cited from earlier work

NC(=O)NCCC[C@H](N)C(=O)O [L-citrulline]
increase of muscle protein synthesis (FSR) (epitrochlearis [1]): +27% | increase of muscle protein synthesis (FSR) (epitrochlearis [1]; listed as citrulline): up to 30% | effect on protein synthesis (epitrochlearis [1]; isolated muscles of healthy adult rats, citrulline added in vitro): no effect | metabolism of citrulline by the muscle (epitrochlearis [2]; listed as Citrulline): not metabolized | metabolism of citrulline by the muscle (epitrochlearis [2]; listed as citrulline): no capacity to metabolize | activity of P70S6 kinase as compared with group R (P70S6kinase; 12 weeks 50% dietary restriction, then one week diet enriched with citrulline 5 g/kg/d): +417% | activity of P70S6 kinase compared with control group A.L. (in words) (P70S6kinase; dietary restriction, then one week enriched diet): not being significantly different | body weight [3]: allowed these rats to take on weight again | protein synthesis level [4]: restore a protein synthesis level which is equivalent to the baseline protein synthesis level among healthy aged rats
